Experimental data reported in patent US8957056B2, “Migrastatin analogs in the treatment of cancer” (Sloan-Kettering Instiute for Cancer Research, priority 2004, dated 2015).
Where two headings read alike, the source gives them in different places. Blank lines part the entries; values can stand above or below the compound they belong to.

Assays:
[1] = rcm bond, toluene, 0.25 h
[2] = system: adherent cells (e.g. KYSE-520 cells); assay: Wound healing (scratch) assay, preliminary (Table 2); type: cell-based; conditions: 28 to 30 h, tested concentrations 200, 100, 50, 25, 10 μM
Experimental: The wound healing assay was performed based on the method described by Nakae et al. (Nakae et al., J. Antibiotics (2000), 53, 1130-1136). Briefly, adherent cells were grown in a suitable media to confluence (e.g. KYSE-520 cells in RPMI-1640 with 10% FBS). Cells were starved for 24 h in serum free media A scratch (ca. 0.5 mm) was applied and the cell layer was washed twice with PBS after removal of the media. Fresh, serum free media with the test compound at the desired concentration was added and the cells were incubated for 28 to 30 h at 37° C., 5% CO2. The scratch size was compared to that observed for cells exposed to 100 μM Migrastatin. Test compounds associated with a scratch size equal to or larger than that observed for cells exposed to 100 μM Migrastatin were deemed to have cell migration inhibitory activity at least equal to Migrastatin.

HUVEC = assay: Tube formation assay; type: cell-based, human; conditions: HUVEC on matrigel, 16-18 h, tested concentrations 200, 100, 50, 25, 10 μM
Experimental: A protocol was designed based on the instructions from the provider (BD Bioscience, San Jose, Calif.). Briefly, wells of a 48 well culture dish were covert with 150 μL matrigel and the matrigel was gelatinized for 30 min at 37° C. A 80-90% confluent HUVEC (BD Bioscience, San Jose, Calif.) culture was trypsin treated, the detached cells were collected by centrifugation and resuspended in EGM-2 media (BD Bioscience, San Jose, Calif.). Cell concentration was adjusted to 100.000 cells/mL. 400 μL of the cell suspension were filled in the matrigel coated wells, and a solution of the inhibitor was added to the intended final concentration. The plates were incubated at 37° C. with 5% CO2 for 16-18 h. Media was removed, and the matrigel surface was washed twice with 500 μL PBS before cells were labeled with 250 μL 8 μM Calcein AM (Pierce, Rockford, Ill.) in PBS for 30 min at 37° C. After two additional washing steps (500 μL PBS) cells were visualized under an inverted microscope. Fluorescence was excited at 488 nm and recorded at 538 nm. The minimum effect concentration was defined as the minimal inhibitor concentration that caused a definite disturbance of the complexity of the formed tube network.

[3] = system: mouse breast tumor cells (4T1 cells); assay: Boyden chamber cell migration assay, 4T1; type: cell-based; conditions: for IC50: 4T1 tumor cells, 6-8 hours, read-out: IC50 value, chamber cell migration assay; for inhibitory activity on tumor cell migration: 4T1 chamber assay
[4] = Mouse blood plasma stability
Experimental: The biological evaluation of the compounds (in terms of their ability to inhibit cell migration) was accomplished in a Boyden chamber cell migration assay. In this assay, mouse breast tumor cells (4T1 cells) or endothelial cells (HUVECs) are seeded on the upper chamber of a transwell insert. Growth factor-containing serum is added to the lower chamber.
In anticipation of subsequent in vivo evaluation of these compounds and others, preliminary metabolic stability studies were carried out. […] As a test of the ‘deactivation hypothesis’, the hydrolysis product of macrolactone 48 was prepared (Scheme 27) and tested for its activity against tumor cell migration.

[5] = system: mouse breast tumor cells (4T1 cells); conditions: chamber assay with mouse breast tumor cells; reported in WO 2004/087672; cited from earlier work

Structure (SMILES): CO[C@H]1C=CCC/C=C/C(=O)OC/C(C)=C\[C@@H](C)[C@@H]1O[Si](C)(C)C(C)(C)C
ring closure, yield of all isomers ([1]; from C=CCC/C=C/C(=O)OC/C(C)=C\[C@@H](C)[C@H](O[Si](C)(C)C(C)(C)C)[C@H](C=C)OC, Grubbs II, 0.664 mM, 111.0 °C): 55%

Structure (SMILES): CO[C@H]1C=CCC/C=C/C(=O)O[C@H]([C@H](C)C(=O)CCCC2CC(=O)NC(=O)C2)/C(C)=C\[C@@H](C)[C@@H]1O[Si](C)(C)C(C)(C)C
ring closure, yield of all isomers ([1]; from C=CCC/C=C/C(=O)O[C@@H](/C(C)=C\[C@@H](C)[C@H](O[Si](C)(C)C(C)(C)C)[C@H](C=C)OC)[C@H](C)C(=O)CCCC1CC(=O)NC(=O)C1, Grubbs II, 0.46 mM, 111.0 °C): 69%

Structure (SMILES): CO[C@H]1C=CCCCCC(=O)CC/C(C)=C\[C@@H](C)[C@@H]1O[Si](C)(C)C(C)(C)C
ring closure, yield of all isomers ([1]; from C=CCCCCC(=O)CC/C(C)=C\[C@@H](C)[C@H](O[Si](C)(C)C(C)(C)C)[C@H](C=C)OC, Grubbs-II catalyst, 0.508 mM, 110.0 °C): 81%

Structure (SMILES): CO[C@H]1C=CCCCCC(=O)NC/C(C)=C\[C@@H](C)[C@@H]1O[Si](C)(C)C(C)(C)C
ring closure, yield of all isomers ([1]; from C=CCCCCC(=O)NC/C(C)=C\[C@@H](C)[C@H](O[Si](C)(C)C(C)(C)C)[C@H](C=C)OC, Grubbs II, 0.709 mM, 111.0 °C): 60%

Structure (SMILES): CO[C@H]1C=CCCCCC(=O)OC/C(C)=C\[C@@H](C)[C@@H]1O[Si](C)(C)C(C)(C)C
ring closure, yield of all isomers ([1]; from C=CCCCCC(=O)OC/C(C)=C\[C@@H](C)[C@H](O[Si](C)(C)C(C)(C)C)[C@H](C=C)OC, Grubbs II, 0.498 mM, 111.0 °C): 76%

Structure (SMILES): CO[C@H]1C=CCCCCC(=O)O[C@@H](C(C)C)/C(C)=C\[C@@H](C)[C@@H]1O
ring closure, yield of all isomers ([1]; from C=CCCCCC(=O)O[C@H](/C(C)=C\[C@@H](C)[C@H](O[Si](C)(C)C(C)(C)C)[C@H](C=C)OC)C(C)C, Grubbs-II catalyst, 0.53 mM, 110.0 °C, 2 steps): 65%

Structure (SMILES): CO[C@H]1C=CCCCCC(=O)O[C@H]([C@H](C)C(=O)CCCC2CC(=O)NC(=O)C2)/C(C)=C\[C@@H](C)[C@@H]1O[Si](C)(C)C(C)(C)C
ring closure, yield of all isomers ([1]; from C=CCCCCC(=O)O[C@@H](/C(C)=C\[C@@H](C)[C@H](O[Si](C)(C)C(C)(C)C)[C@H](C=C)OC)[C@H](C)C(=O)CCCC1CC(=O)NC(=O)C1, Grubbs II, 0.48 mM, 111.0 °C): 79%

IC50 [3]: 10 µM
metabolic stability in mouse blood plasma ([4]; mouse, plasma): completely inert toward lactone opening
Structure (SMILES): COC1C=CCCCCC(=O)OC(C(C)C(=O)CCCC2CC(=O)NC(=O)C2)C(C)=CC(C)C1O (stereo not shown) [Compound 41, 2,3-Dihydromigrastatin]
Minimum effect concentration [2]: 25 µM
Minimum effect concentration (HUVEC): 50 µM

IC50 [3]: 7 µM
metabolic stability in mouse blood plasma ([4]; mouse, plasma): completely inert toward lactone opening
Structure (SMILES): COC1C=CCCCCC(=O)OC(C(C)C(=O)CCCC2CC(=O)N(C)C(=O)C2)C(C)=CC(C)C1O (stereo not shown) [Compound 42, N-Methyl-2,3-Dihydromigrastatin]

Structure (SMILES): CO[C@H]1/C=C/CC/C=C/C(=O)OC/C(C)=C\[C@@H](C)[C@@H]1O [Compound 45, Migrastatin Core]
Minimum effect concentration (HUVEC): 10 µM
metabolic stability in mouse blood plasma ([4]; test period one hour): hydrolyzed rapidly

Structure (SMILES): CO[C@H]1/C=C/CCCCC(=O)OC/C(C)=C\[C@@H](C)[C@@H]1OC(C)=O [Compound 49, Acetylated Macrolactone]
inhibitory activity on tumor cell migration [3]: reduced by roughly an order of magnitude

Structure (SMILES): CO[C@H]1/C=C/CCCCC(=O)OC/C(C)=C\[C@@H](C)C1=O [Compound 50, Oxidized Macrolactone]
inhibitory activity on tumor cell migration [3]: reduced by roughly an order of magnitude

IC50 ([3]; Mus musculus): 0.378 µM
Structure (SMILES): CO[C@@H](/C=C/CCCCC(=O)O)[C@@H](O)[C@H](C)/C=C(/C)CO [Compound 51, Hydrolyzed Core]

metabolic stability in mouse blood plasma ([4]; mouse, plasma): no sign of degradation
Structure (SMILES): COC1C=CCCCCC(=O)OC(C(C)C)C(C)=CC(C)C1O [Compound 65, (S)-Isopropyl Macrolactone]
inhibitory activity on tumor cell migration [3]: only very weak effects on tumor cell migration

metabolic stability in mouse blood plasma ([4]; mouse, plasma): no sign of degradation
Structure (SMILES): COC1C=CCCCCC(=O)OC(C(C)C)C(C)=CC(C)C1O [Compound 68, (R)-Isopropyl Macrolactone]
inhibitory activity on tumor cell migration [3]: only very weak effects on tumor cell migration

Structure (SMILES): CO[C@H]1/C=C/CCCCC(O)CC/C(C)=C\[C@@H](C)[C@@H]1O (stereo partly shown) [Compound 69, Macrocyclic Secondary Alcohol]
ability to inhibit tumor cell migration [5]: rather weak migration inhibitors

Structure (SMILES): CO[C@H]1/C=C/CCCCC(C)(O)CC/C(C)=C\[C@@H](C)[C@@H]1O (stereo partly shown) [Compound 70, Macrocyclic Tertiary Alcohol]
ability to inhibit tumor cell migration [5]: rather weak migration inhibitors

Structure (SMILES): CO[C@H]1/C=C/CCCCC(O)(C(F)(F)F)CC/C(C)=C\[C@@H](C)[C@@H]1O (stereo partly shown) [Compound 71, Macrocyclic CF3-Alcohol]
ability to inhibit tumor cell migration [5]: displays the same activity profile as macroketone 60

Structure (SMILES): CO[C@H]1/C=C/CCCCC(=NO)CC/C(C)=C\[C@@H](C)[C@@H]1O [Compound 72, Macrooxime]
ability to inhibit tumor cell migration [5]: rather weak migration inhibitors

Structure (SMILES): COC1C=CCCC=CC(=O)OC(C(C)C(=O)CCCC2CC(=O)N(C)C(=O)C2)C(C)=CC(C)C1O (stereo not shown) [N-Methyl-migrastatin]
Minimum effect concentration [2]: 100 µM
Minimum effect concentration (HUVEC): 200 µM
